Among the test systems are MDA-MB-231 breast; UACC-62 melanoma; HS 578T breast; MALME-3M melanoma; SN12C renal; SF-539 CNS; HL-60(TB) leukemia; HOP-62 NSCLC; RPMI-8226 leukemia; TK-10 renal.
Holding throughout (assay): NCI-60 cell line screen, 48 h

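Five concentrations, 48 hours, 96-well plates. The concentration for 50% growth inhibition is given as GI50. TGI: total growth inhibition.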 Bounds are passed on as bounds.

For `COc1cc([N+](=O)[O-])c(S(=O)(=O)O)cc1-n1nc(-c2ccccc2)n[n+]1-c1cc(S(=O)(=O)[O-])c([N+](=O)[O-])cc1OC`, the TGI with MDA-MB-231 breast, in the assay with UACC-62 melanoma, in the assay on HS 578T breast, in the assay with MALME-3M melanoma, in the assay with SN12C renal and in the assay with SF-539 CNS was greater than 100 µM each time. For the same compound, the TGI in the assay on HL-60(TB) leukemia, in the assay with HOP-62 NSCLC and in the assay on RPMI-8226 leukemia was greater than 100 µM throughout.
As for `CCOc1ccc2c(-c3ccnc(Nc4cccc(C(F)(F)F)c4)n3)cnn2n1`, the GI50 in the assay on TK-10 renal is 9.72 µM; in the assay on MDA-MB-231 breast, 14.7 µM; with UACC-62 melanoma, 11.5 µM; with HS 578T breast, greater than 20.2 µM; in the assay on MALME-3M melanoma, greater than 25 µM; in the assay on SN12C renal, 15.1 µM. For the same compound, the GI50 is 4.92 µM in the assay on SF-539 CNS, greater than 25 µM with HL-60(TB) leukemia, greater than 21 µM with HOP-62 NSCLC and greater than 25 µM in the assay on RPMI-8226 leukemia. Also, the TGI with TK-10 renal is greater than 23.8 µM; with MDA-MB-231 breast, greater than 25 µM; in the assay on UACC-62 melanoma, greater than 25 µM; in the assay on HS 578T breast, greater than 25 µM; with MALME-3M melanoma, greater than 25 µM; in the assay with SN12C renal, greater than 25 µM. Also, the TGI was 9.63 µM with SF-539 CNS, greater than 25 µM in the assay on HL-60(TB) leukemia, greater than 25 µM in the assay on HOP-62 NSCLC and greater than 25 µM in the assay with RPMI-8226 leukemia.
Turning to `CCN(CCc1ccc(F)cc1)c1ccc(CO)c(Cl)c1`, the GI50 with TK-10 renal was 0.366 µM; in the assay with MDA-MB-231 breast, 11.4 µM; in the assay on UACC-62 melanoma, 1.32 µM; with HS 578T breast, 11.5 µM; in the assay with MALME-3M melanoma, 16 µM; in the assay on SN12C renal it was 9.27 µM. Moreover, the GI50 in the assay with SF-539 CNS was 15.7 µM; with HL-60(TB) leukemia, 9.01 µM; in the assay on HOP-62 NSCLC it was 13.1 µM; in the assay on RPMI-8226 leukemia, 4.69 µM. The TGI worked out at 1.7 µM in the assay with TK-10 renal; 24.4 µM with MDA-MB-231 breast; 8.41 µM with UACC-62 melanoma; 32.4 µM in the assay on HS 578T breast; 31.1 µM in the assay on MALME-3M melanoma; 23 µM in the assay with SN12C renal. For the same compound, the TGI was determined as 29.3 µM with SF-539 CNS, 30.3 µM with HL-60(TB) leukemia, 26.2 µM in the assay on HOP-62 NSCLC and 27.4 µM in the assay with RPMI-8226 leukemia.
`CCc1nc2cc(/C=C/C(=O)NO)c(F)cc2c(=O)n1CCc1ccccc1`: the GI50 is 0.881 µM with TK-10 renal; 0.668 µM in the assay with MDA-MB-231 breast; 0.597 µM in the assay on UACC-62 melanoma; 2.95 µM with HS 578T breast; 0.944 µM with MALME-3M melanoma; 0.874 µM in the assay on SF-539 CNS. Besides, the values for the GI50 in the assay with HL-60(TB) leukemia, in the assay on HOP-62 NSCLC and with RPMI-8226 leukemia were 3.71 µM, 1.05 µM and 0.654 µM, respectively. The TGI in the assay on TK-10 renal amounted to 5.49 µM; in the assay on MDA-MB-231 breast it was 7.97 µM; in the assay on UACC-62 melanoma it was 3.38 µM; in the assay on HS 578T breast, 45.2 µM; in the assay on MALME-3M melanoma it was 10.4 µM; with SF-539 CNS, 5.8 µM. Also, the TGI is greater than 100 µM in the assay with HL-60(TB) leukemia, 5.98 µM in the assay with HOP-62 NSCLC and 44.8 µM in the assay on RPMI-8226 leukemia.
Turning to `CCCCn1c(=O)c(/C=C/C(=O)/C=C/c2ccc(O)c(OC)c2)cc2ccc(Cl)cc21`, the GI50 in the assay on TK-10 renal is 2.51 µM; with MDA-MB-231 breast, 2.51 µM; in the assay with UACC-62 melanoma it was 1.48 µM; with HS 578T breast, 3.18 µM; with MALME-3M melanoma, 2.14 µM; in the assay on SN12C renal it was 1.91 µM. Besides, the GI50 was 1.62 µM with SF-539 CNS, 2.34 µM with HL-60(TB) leukemia, 1.81 µM in the assay with HOP-62 NSCLC and 2.46 µM in the assay on RPMI-8226 leukemia. Moreover, the TGI with TK-10 renal was determined as 5.47 µM; with MDA-MB-231 breast, 7.73 µM; with UACC-62 melanoma, 3.24 µM; with HS 578T breast it was 14.8 µM; in the assay with MALME-3M melanoma, 4.92 µM; in the assay with SN12C renal, 4.17 µM. Moreover, the TGI in the assay with SF-539 CNS is 3.18 µM; with HL-60(TB) leukemia, 13.4 µM; in the assay with HOP-62 NSCLC it was 4.17 µM; in the assay on RPMI-8226 leukemia, 7.62 µM.
In the case of `COc1cc(C)c(N(C)C(=O)CN(C)C)cc1Nc1nc(Nc2cccc(F)c2C(N)=O)c2cc[nH]c2n1`, the GI50 in the assay with TK-10 renal was greater than 22 µM; in the assay on MDA-MB-231 breast, greater than 25 µM; with UACC-62 melanoma, greater than 25 µM; with HS 578T breast it was greater than 17.5 µM; in the assay on MALME-3M melanoma it was greater than 25 µM; in the assay with SN12C renal, greater than 25 µM. In addition, the GI50 was greater than 25 µM with SF-539 CNS, 3.2 µM in the assay with HL-60(TB) leukemia, greater than 25 µM in the assay on HOP-62 NSCLC and greater than 22 µM with RPMI-8226 leukemia. In addition, the TGI in the assay on TK-10 renal, with MDA-MB-231 breast, in the assay on UACC-62 melanoma, in the assay on HS 578T breast, in the assay with MALME-3M melanoma and in the assay on SN12C renal was greater than 25 µM in each case. Also, the TGI in the assay with SF-539 CNS, in the assay on HL-60(TB) leukemia, with HOP-62 NSCLC and with RPMI-8226 leukemia was greater than 25 µM throughout.
As for `COc1ccc(OC)c(-c2cn3nc(-c4c[nH]c5ccc(Br)cc45)sc3n2)c1`, the GI50 in the assay on TK-10 renal is 3.18 µM; in the assay with MDA-MB-231 breast it was 1.73 µM; in the assay with UACC-62 melanoma, 3.15 µM; in the assay on HS 578T breast, 2.87 µM; with MALME-3M melanoma, 2.25 µM; in the assay with SN12C renal, 2.74 µM. Also, the GI50 with SF-539 CNS was 1.78 µM; with HL-60(TB) leukemia it was 9.21 µM; in the assay on HOP-62 NSCLC, 2.7 µM; in the assay with RPMI-8226 leukemia, 3.19 µM. Moreover, the TGI in the assay with TK-10 renal was determined as 6.54 µM; with MDA-MB-231 breast, 4.05 µM; with UACC-62 melanoma, 13.2 µM; in the assay on HS 578T breast, 14.5 µM; in the assay on MALME-3M melanoma, 4.93 µM; in the assay on SN12C renal, 10 µM. Moreover, the TGI is 3.41 µM in the assay on SF-539 CNS, greater than 100 µM in the assay with HL-60(TB) leukemia, 13.3 µM in the assay on HOP-62 NSCLC and 20.4 µM in the assay with RPMI-8226 leukemia.
On to `O=C(/C=C/c1ccccc1)c1ccc(O)c(CN2CCN(c3cc4c(cc3F)c(=O)c(C(=O)O)cn4C3CC3)CC2)c1`, for which the GI50 with TK-10 renal was 6.37 µM; in the assay on MDA-MB-231 breast, 1.94 µM; in the assay with UACC-62 melanoma, 1.67 µM; in the assay with HS 578T breast, 0.577 µM; with MALME-3M melanoma it was 0.769 µM; with SF-539 CNS it was 0.465 µM. The GI50 in the assay on HL-60(TB) leukemia was 0.77 µM; in the assay on HOP-62 NSCLC, 3.22 µM; in the assay with RPMI-8226 leukemia, 0.275 µM. The TGI with TK-10 renal was greater than 100 µM; in the assay on MDA-MB-231 breast it was 7.65 µM; in the assay with UACC-62 melanoma, greater than 100 µM; with HS 578T breast, greater than 100 µM; in the assay with MALME-3M melanoma it was 15.6 µM; in the assay with SF-539 CNS, greater than 100 µM. Also, the TGI is greater than 100 µM in the assay with HL-60(TB) leukemia, greater than 100 µM in the assay on HOP-62 NSCLC and 6.37 µM in the assay on RPMI-8226 leukemia.

Source of the values: PubChem BioAssay (NCI).
